{
  "source": "patent US20060040884A1",
  "about": "“Antisense oligonucleotides directed to genes regulated by trapoxin-induced HDAC inhibition” (priority 2001, published 2006)",
  "key": {"RhoB": {"system": "RhoB", "experiment": "Western/immunoblot detection of RhoB protein in TPX-treated H1299 cells", "assay_type": "cell-based, human", "settings": "30 nM", "method": "(§1) Detection of p21^waf1 and RhoB protein induction in response to trapoxin A treatment. […] Whole lysates are prepared in triple detergent lysis buffer (50 mM Tris, pH 8, 150 mM NaCl, 0.02% NaN3, 0.1% SDS, 1% Nonidet P-40, 0.5% sodium deoxycholate, 100 μg/ml phenylmethylsulfonyl fluoride, 1 μg/ml aprotinin) and proteins are separated by SDS-polyacrylamide electrophoresis, electrophoretically transferred to nitrocellulose membranes, and incubated with anti-p21^waf1 (BD Pharmingen, San Jose, Calif.) or anti-RhoB (Santa Cruz Biotechnologies, Santa Cruz Calif.). Immunoreactive proteins are visualized using ECL chemiluminescence system (Amersham Pharmacia Biotech., Piscataway, N.J.).\nH1299 non-small lung carcinoma cells are treated with 30 nM trapoxin A or 0.1% dimethysulphoxide or untreated for 0, 8, 24 and 48 h for RhoB. Whole lysates are prepared in triple detergent lysis buffer (50 mM Tris, pH 8, 150 mM NaCl, 0.02% NaN3, 0.1% SDS, 1% Nonidet P-40, 0.5% sodium deoxycholate, 100 μg/ml phenylmethylsulfonyl fluoride, 1 μg/ml aprotinin) and proteins are separated by SDS-polyacrylamide electrophoresis, electrophoretically transferred to nitrocellulose membranes, and incubated with anti-RhoB (Santa Cruz Biotechnologies, Santa Cruz Calif.). Immunoreactive proteins are visualized using ECL chemiluminescence system (Amersham Pharmacia Biotech., Piscataway, N.J.). […]"}, "H1299 cells": {"system": "H1299 cells", "experiment": "Northern blot analysis of transcripts in TPX-treated H1299 cells", "assay_type": "cell-based, human", "method": "Northern Blotting. […] RNA is separated by electrophoresis on denaturing agarose gels and transferred to nylon membranes. Membranes are hybridized with random hexanucleotide-primed ^32P-labeled DNA fragments that are prepared from the RhoB gene, using standard protocols.\nA subset of genes on Incyte cDNA arrays that were differentially expressed in response to HDAC inhibition by TPX treatment were analyzed using Northern blot analyses to confirm that the level of these transcripts changed in response to HDAC inhibition. Total RNA that was isolated from TPX-treated H1299 cells for 0, 6 and 18 h was hybridized with probes that were prepared from sequences of 8 differentially expressed transcripts, including G9 sialidase, IPP isomerase, p21^waf1, Interferon γ-inducible IP-30 (GILT), Hsp 70, urokinase plasminogen activator receptor, and KIAA0797. Although there were differences in the absolute changes in transcript levels that were determined by Northern analysis versus the arrays, the directional trend in the differential expression in response to TPX was confirmed for all of the genes tested.\n[…] RNA is separated by electrophoresis on denaturing agarose gels and transferred to nylon membranes. […]\nTotal RNA is isolated from H1299 cells treated for 6 h with 30 nM TPX or DMSO using Trizol reagent (Life Technologies). The RNA samples are analyzed by Northern blots using conventional methods. […]"}, "p21waf1": {"system": "p21waf1", "experiment": "Immunoblot detection of p21waf1 protein induction in response to trapoxin A", "assay_type": "cell-based, human", "settings": "H1299 cells, 48 h", "method": "as §1"}, "RhoB promoter": {"system": "RhoB promoter", "experiment": "RhoB promoter luciferase reporter assay in transfected H1299 cells treated with TPX"}},
  "note": "Square brackets hold non-standard residues; d marks the D form. Peptide text beside a SMILES is read from it. ξ: configuration not given here. Aoe(9ξ) = N[C@@H](CCCCCC(=O)C1CO1)C(=O)O; dPip = O=C(O)[C@H]1CCCCN1",
  "data": [
    {"smiles": "O=C(CCCCC[C@@H]1NC(=O)[C@H]2CCCCN2C(=O)[C@H](Cc2ccccc2)NC(=O)[C@H](Cc2ccccc2)NC1=O)C1CO1", "note": "(stereo partly shown) [TPX, Trapoxin A] (cyclo(FF[dPip][Aoe(9ξ)]))", "values": [
      {"measurement": "RhoB protein level (Western analysis)", "setting": "RhoB", "value": "up-regulated"},
      {"measurement": "RhoB mRNA level (Northern analysis)", "setting": "H1299 cells; 30 nM, 6 h", "value": "up-regulated"},
      {"measurement": "Directional trend in differential expression vs arrays (Northern; G9 sialidase, IPP isomerase, p21waf1, IP-30, Hsp 70, UpaR, KIAA0797)", "setting": "H1299 cells; TPX 0, 6 and 18 h", "value": "confirmed"},
      {"measurement": "TPX-induced p21waf1 expression (Western blotting)", "setting": "p21waf1", "value": "decreased"},
      {"measurement": "Induction of luciferase activity driven by the RhoB promoter", "setting": "RhoB promoter; 30 nM TPX 24 h, normalized to DMSO", "value": "about 10 fold"},
      {"measurement": "Effect of insertion of three nucleotides (AAA) between CCAAT and TATA boxes on TPX induction", "setting": "RhoB promoter; 30 nM TPX vs 0.1% DMSO, 24 h", "value": "no effect"},
      {"measurement": "Induction of RhoB promoter 5′ deletion constructs (luciferase activity)", "setting": "RhoB promoter; all constructs generated", "value": "induced by TPX to a similar extent"}
    ]}
  ]
}
